The results in this text go back to publication doi:10.1101/2024.08.06.606911v7 (biorxiv, 2025).

In this experiment the target is PTEN (GST-PTEN; Myc-PTEN) (Homo sapiens, UniProt P60484). Kind of experiment: SPR, BIACORE […], PTEN immobilised on CM5 chip. The experiment is classed as binding.
Sequence of PTEN (GST-PTEN; Myc-PTEN) (P60484 whole entry): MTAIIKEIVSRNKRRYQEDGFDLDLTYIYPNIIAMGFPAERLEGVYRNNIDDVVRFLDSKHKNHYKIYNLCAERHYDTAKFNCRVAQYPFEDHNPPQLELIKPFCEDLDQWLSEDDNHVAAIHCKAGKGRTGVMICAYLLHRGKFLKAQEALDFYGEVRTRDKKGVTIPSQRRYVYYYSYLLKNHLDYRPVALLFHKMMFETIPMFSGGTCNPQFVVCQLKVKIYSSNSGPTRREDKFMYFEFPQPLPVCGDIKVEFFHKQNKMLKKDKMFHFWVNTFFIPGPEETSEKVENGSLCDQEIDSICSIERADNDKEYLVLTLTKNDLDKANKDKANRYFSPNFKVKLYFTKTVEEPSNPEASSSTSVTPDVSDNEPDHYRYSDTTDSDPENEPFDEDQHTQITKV

One may read the Kd as the constant that tells how readily two partners part at equilibrium. Lower therefore signals a tighter complex. `C[C@@H]1O[C@@H](O[C@@H]2[C@@H](O)[C@H](OCCc3ccc(O)c(O)c3)O[C@H](CO[C@@H]3O[C@H](CO)[C@@H](O)[C@H](O)[C@H]3O)[C@H]2OC(=O)/C=C/c2ccc(O)c(O)c2)[C@H](O)[C@H](O)[C@H]1O` [Echinacoside] came in with a Kd of 230 µM.
